Read-outs that look alike come from different tables or passages of the source.
Assays:
[1] = Standard Cytotoxicity Assay for other cancer cell types (TC50, CellTiter-Glo); format: cell-based; details: for CC50 at 3 day: read-out: Cmpd A 3 day TC50; for CC50 at 7 day: read-out: Cmpd A 7 day TC50
Protocol: Approximately 24 hours later, test compound was added from serial dilutions prepared in DMSO from DMSO stock solutions.

[2] = test system: MIAPaCa-2 xenograft tumors; assay: MIAPaCa-2 human pancreatic carcinoma murine xenograft, tumor growth and survival; format: in vivo, mice; details: for animals having tumor volumes >1500 mm3 at end of study: Day 40
Protocol: Exemplary Compound A was tested for its ability to suppress tumor growth, and promote survival in MIAPaCa-2 human pancreatic carcinoma (i.e., a Naprt-deficient cancer) murine xenograft models (FIG. 9). In these experiments, MIAPaCa-2 tumor-bearing mice with a median tumor volume of 202 mm^3 were orally dosed on days 1, 10 and 19 with either vehicle, 75 mg/kg Exemplary Compound A or 200 mg/kg Exemplary Compound A in combination with 400 mg/kg NA, or were orally dosed daily with 400 mg/kg NA for 21 days. See key below FIG. 9(b). NA was always administered one hour prior to dosing with Exemplary Compound A or vehicle.

[3] = format: in vivo; details: mice, single oral dose 300 mg/kg, by 5 days
[4] = human, MALME-3 cells (normal skin), MALME-3 cells (skin (normal))
[5] = human, hFLS-RA (primary synoviocytes)
[6] = keratinocytes (primary skin cells), keratinocytes (primary skin)

SMILES: O=C(NCc1cccnc1)Nc1ccc(COc2ccccc2-c2ccccc2)cc1 [Exemplary Compound A, 1-{4-[(biphenyl-2-yloxy)methyl]phenyl}-3-(pyridin-3-ylmethyl)urea]
- CC50 at 3 day ([1]; SAEC (primary lung cells), SAEC (primary lung), value printed with (?)): 15000 nM
- CC50 at 3 day [1, 4]: > 5000 nM
- CC50 at 7 day [1, 4]: 0.9 nM
- CC50 at 3 day [1, 5]: > 25000 nM
- CC50 at 7 day [1, 5]: > 25000 nM
- CC50 at 3 day [1, 6]: 2.9 nM
- CC50 at 7 day [1, 6]: < 0.4 nM
- CC50 at 3 day ([1]; mouse, NIH-3T3 cells (fibroblast), NIH-3T3 cells (mouse; fibroblast)): 0.45 nM
- survival ([2]; 200 mg/kg with 400 mg/kg NA): significantly increased survival
- animals having tumor volumes >1500 mm3 at end of study ([2]; 200 mg/kg with 400 mg/kg NA): two
- tumor growth inhibition (TGI) relative to vehicle ([2]; oral 75 mg/kg days 1, 10, 19, day 19): 53%
- tumor growth inhibition (TGI) ([2]; oral 200 mg/kg with 400 mg/kg NA days 1, 10, 19, day 19): 88%
- animals having tumor volumes >1500 mm3 at end of study ([2]; other cohorts (incl. 75 mg/kg)): eight
- lethality [3]: completely lethal
